According to patent US6555578B2, “Thyromimetic antiobesity agents” (Pfizer Inc., priority 1999, dated 2003):

Tested on: whole body oxygen consumption
Test: In vivo screen: whole body (resting) oxygen consumption in fatty Zucker rats by indirect calorimetry
Settings: male fatty Zucker rats, oral gavage once daily for 6 days, measured the day after the last dose
Protocol: This in vivo screen is designed to evaluate the efficacy and cardiac effects of compounds that are tissue selective thyroid hormone agonists. The efficacy endpoints measured are whole body oxygen consumption and the activity of liver mitochrondrial alpha-glycerophosphate dehydrogenase (mGPDH). The cardiac endpoints that are measured are heart weight and heart mGPDH activity. The protocol involves dosing fatty Zucker rats for 6 days, then measuring oxygen consumption and harvesting of tissues for preparation of mitochondria and assaying of enzyme activity. […]
Oxygen consumption is measured the day after the last dose of compound is given using an open circuit, indirect calorimeter (Oxymax, Columbus Instruments, 950 North Hague Ave., Columbus, Ohio 43204). […] Rats are removed from their home cages, their body weights are recorded and they are placed in sealed chambers (43×43×10 cm) of the calorimeter and the chambers are placed in activity monitors. […] The activity monitors have 15 infrared light beams spaced one inch apart on each axis; ambulatory activity is recorded when two consecutive beams are broken and the results are recorded as counts. Oxygen consumption and ambulatory activity are measured every 10 minutes for 5-6.5 hours. […]

Work on `Cc1cc(NC(=O)C(=O)O)cc(C)c1Oc1ccc(O)c(C(C)C)c1` [CGS-23425, N-[3,5-dimethyl-4-(4′-hydroxy-3′-isopropylphenoxy)-phenyl]-oxamic acid] yielded a stimulated oxygen consumption (dose of 1.0 mg/kg body weight) of 27%.
Compound `CCOC(=O)C(=O)Nc1cc(C)c(Oc2ccc(O)c(C(O)c3ccc(F)cc3)c2)c(C)c1` (centres unmarked) [CGS-26214, ethyl N-[4-[3′-[(4-fluorophenyl)hydroxymethyl]-4′-hydroxyphenoxy]-3,5-dimethylphenyl]oxamate] has a stimulated oxygen consumption (doses of 0.005 to 0.3 mg/kg body weight) of 14 to 31%.
